Patent US8173843B2, “Amphiphilic derivatives of α-C-phenyl-N-tert-butylnitrone” (TS Pharma, priority 2006, dated 2012)

Columns and labels:
[1] = tested on: Sprague-Dawley rat embryo cortex cell cultures; assay: Hydrogen peroxide-induced apoptotic cell death, viability of cortex cell cultures; type: cell-based; settings: compound at 10 μM; hydrogen peroxide 50 to 200 μM; preliminary results
Method: (§1) The biological tests were carried out according to the procedures described in Journal of Neurochemistry, 2005, 95, 962-973. In order to evaluate the potentialities of these novel derivatives, we measured the ability of compound 10 to reduce and prevent apoptotic cell death phenomena. Hydrogen peroxide is very widely used as an apoptosis inducer in many cell models. Thus, the viability of Sprague-Dawley rat embryo cortex cell cultures is greatly impaired after treatment with hydrogen peroxide at concentrations of 50 to 200 μM. […] These same cultures were also subjected to a mitochondria-selective oxidative stress inducer, doxorubicin (Kotamraju S.; Konorev E. A.; Joseph J.; Kalyanaraman B. J. Biol. Chem. 2000, 275, 33 585-33 592). The observations are the same as for the induction with hydrogen peroxide. […] These preliminary results underline the great ability of compound 10 to prevent apoptosis phenomena induced at varying cell levels. […] A dysfunction of the mitochondrion, the central organelle in the control of apoptosis is involved in a very wide variety of pathological conditions. The anti-apoptotic properties of derivative 10 combined with its incorporation into the mitochondrion make it possible to envision its use in the fields mentioned above.

[2] = tested on: Sprague-Dawley rat embryo cortex cell cultures; assay: Doxorubicin (mitochondria-selective oxidative stress inducer)-induced cell death, viability of cortex cell cultures; type: cell-based; settings: doxorubicin-induced mitochondrial oxidative stress; preliminary results
Method: as §1

[3] = oxidative aging tests; Poeggeler et al. 2005; cited from earlier work
[4] = literature; cited from earlier work
gerbils = settings: after injection in gerbils; Oliver et al. 1990; cited from earlier work

Compound	restoration of viability of cultures after hydrogen peroxide treatment [1]	protection against cell death / cell viability under doxorubicin [2]	biological activity compared with PBN [3]	neuroprotective activity compared with PBN [4]	damage caused by cerebral ischemia (gerbils)
CCCCCCCC(=O)NCc1ccc(/C=[N+](\[O-])C(C)(C)CNC(=O)C(O)[C@H](O)[C@H](O[C@@H]2OC(CO)[C@H](O)C(O)C2O)C(O)CO)cc1 (stereo partly shown) [Compound 10]	completely restore the viability	allows the cell viability to be completely maintained			
CCCCCCCC(=O)NCC(C)(C)[N+]([O-])=Cc1ccc(CNC(=O)[C@H](OC(C)=O)[C@@H](OC(C)=O)[C@H](O[C@@H]2O[C@H](COC(C)=O)[C@H](OC(C)=O)[C@H](OC(C)=O)[C@H]2OC(C)=O)[C@@H](COC(C)=O)OC(C)=O)cc1 [LPBNAH, N-[4-(octa-O-acetyllactobionamidomethylene)benzylidene]-N-[1,1-dimethyl-2-(N-octanoyl)amido]ethylamine N-oxide]			biological activity greater than that of PBN		
CC(C)(C)[N+]([O-])=Cc1ccc(S(=O)(=O)[O-])cc1S(=O)(=O)[O-].[Na+].[Na+] [NXY-059]				neuroprotective activity greater than PBN	
CC(C)(C)[N+]([O-])=Cc1ccccc1 [PBN, α-C-phenyl-N-tert-butylnitrone]	very incompletely restore the viability	only a partial protection against cell death			decrease in the damage caused by cerebral ischemia
